The structures appear in SMILES notation. Several values for one entry are separate records, joined by “and”; a condition that tells them apart may be missing. Equal values may be shown once. Read-outs that look alike come from different tables or passages of the source.

What is called Ki is a measure of affinity in units of concentration, obtained from inhibition or displacement. One may read the melting point as the temperature, or range, at which the solid turns liquid.

One data set has as its target T1, hCA VA (Homo sapiens, UniProt P35218).
T1 construct: made in house
The data set is described as follows: Stopped-Flow CO2 hydrase assay, hCA VA. Type of data set: biochemical.

Another data set deals with T2, hCA II (Homo sapiens, UniProt P00918).
T2 construct: made in house
The experiment in a line: Stopped-Flow CO2 hydrase assay, hCA II. Type of data set: biochemical. As to conditions: mean from 3 assays, errors ± 5–10%.

For another data set, the target named is T3, hCA VII (Homo sapiens, UniProt P43166).
T3 construct: made in house
T3 sequence (P43166 whole entry): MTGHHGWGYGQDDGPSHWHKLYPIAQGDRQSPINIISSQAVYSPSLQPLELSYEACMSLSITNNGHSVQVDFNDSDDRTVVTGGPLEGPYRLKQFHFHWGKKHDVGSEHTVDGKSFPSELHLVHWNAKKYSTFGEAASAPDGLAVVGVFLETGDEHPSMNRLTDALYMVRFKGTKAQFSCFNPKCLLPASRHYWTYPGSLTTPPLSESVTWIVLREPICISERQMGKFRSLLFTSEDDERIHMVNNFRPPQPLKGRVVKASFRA
The data set is described as follows: Stopped-Flow CO2 hydrase assay, hCA VII. As to conditions: mean from 3 assays, errors ± 5–10%. Type of data set: biochemical.

In a further data set the target is T4, hCA XII (Homo sapiens, UniProt O43570).
T4 construct: made in house
T4 sequence (O43570 25-354): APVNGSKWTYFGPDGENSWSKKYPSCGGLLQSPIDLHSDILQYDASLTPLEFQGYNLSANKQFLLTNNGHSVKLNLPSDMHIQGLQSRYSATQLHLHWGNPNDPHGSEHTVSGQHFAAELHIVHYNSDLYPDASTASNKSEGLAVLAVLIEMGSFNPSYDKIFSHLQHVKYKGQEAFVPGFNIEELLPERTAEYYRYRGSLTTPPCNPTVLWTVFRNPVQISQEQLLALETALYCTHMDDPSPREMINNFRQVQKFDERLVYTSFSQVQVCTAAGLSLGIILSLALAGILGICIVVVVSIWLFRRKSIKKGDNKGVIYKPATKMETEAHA
The experiment in a line: Stopped-Flow CO2 hydrase assay, hCA XII. It is filed as biochemical. Conditions: mean from 3 assays, errors ± 5–10%.

The target in data set [1] is T5, hCA III (Homo sapiens, UniProt P07451).
T5 construct: made in house
T5 sequence (P07451 whole entry): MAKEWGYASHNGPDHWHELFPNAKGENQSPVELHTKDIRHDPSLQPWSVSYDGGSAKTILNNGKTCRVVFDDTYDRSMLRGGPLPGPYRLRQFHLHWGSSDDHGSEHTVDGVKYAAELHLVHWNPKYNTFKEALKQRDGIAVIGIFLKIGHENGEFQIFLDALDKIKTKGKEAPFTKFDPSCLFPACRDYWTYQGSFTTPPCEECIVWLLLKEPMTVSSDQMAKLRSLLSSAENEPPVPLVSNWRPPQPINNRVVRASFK
The experiment in a line: Stopped-Flow CO2 hydrase assay, hCA III. As to conditions: for Selectivity Index (SI) hCA I/hCA III: ratio of KI hCA I to KI hCA III; for Selectivity Index (SI) hCA II/hCA III: ratio of KI hCA II to KI hCA III; for Ki: stopped-flow CO2 hydrase, mean from 3 assays, errors ± 5–10%. Type of data set: biochemical.
Description: (§1) An Applied Photophysics stopped-flow instrument has been used for assaying the CA catalysed CO2 hydration activity[47]. […] The CO2 concentrations ranged from 1.7 to 17 mM for the determination of the kinetic parameters and inhibition constants. […] The uncatalysed rates were determined in the same manner and subtracted from the total observed rates. Stock solutions of inhibitor (0.1 mM) were prepared in distilled − deionized water and dilutions up to 0.01 nM were done thereafter with the assay buffer. Inhibitor and enzyme solutions were preincubated together for 15 min at room temperature before assay to allow for the formation of the E − I complex. The inhibition constants were obtained by nonlinear least-squares methods using PRISM 3 and the Cheng − Prusoff equation, as reported earlier[48]^,[49], and represent the mean from at least three different determinations. […] All hCA isoforms were recombinant ones obtained in-house as reported earlier[50].

The target of another data set is T6, hCA VB (Homo sapiens, UniProt Q9Y2D0).
T6 construct: made in house
T6 sequence (Q9Y2D0 34-317): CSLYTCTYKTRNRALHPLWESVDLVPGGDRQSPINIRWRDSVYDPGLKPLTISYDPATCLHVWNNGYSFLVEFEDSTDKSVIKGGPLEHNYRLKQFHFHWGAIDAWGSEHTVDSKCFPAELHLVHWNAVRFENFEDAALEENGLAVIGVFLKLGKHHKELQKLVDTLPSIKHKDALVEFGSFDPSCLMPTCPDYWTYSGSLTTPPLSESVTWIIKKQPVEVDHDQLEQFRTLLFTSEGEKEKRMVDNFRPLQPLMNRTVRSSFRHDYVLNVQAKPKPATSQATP
The experiment in a line: Stopped-Flow CO2 hydrase assay, hCA VB. It is filed as biochemical. As to conditions: mean from 3 assays, errors ± 5–10%.

The target of the next data set is T7, hCA I (Homo sapiens, UniProt P00915).
T7 construct: made in house
T7 sequence (P00915 whole entry): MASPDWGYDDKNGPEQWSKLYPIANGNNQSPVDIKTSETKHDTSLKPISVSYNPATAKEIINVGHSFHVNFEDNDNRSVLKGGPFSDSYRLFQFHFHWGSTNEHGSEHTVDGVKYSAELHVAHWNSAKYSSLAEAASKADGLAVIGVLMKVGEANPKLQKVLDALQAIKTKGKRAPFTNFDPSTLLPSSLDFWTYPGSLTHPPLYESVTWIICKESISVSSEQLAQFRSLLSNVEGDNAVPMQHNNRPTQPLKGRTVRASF
The experiment in a line: Stopped-Flow CO2 hydrase assay, hCA I. Type of data set: biochemical. Conditions: mean from 3 assays, errors ± 5–10%.

Another data set addresses T8, hCA IV (Homo sapiens, UniProt P22748).
T8 construct: made in house
The experiment in a line: Stopped-Flow CO2 hydrase assay, hCA IV. It is filed as biochemical. Conditions: mean from 3 assays, errors ± 5–10%.

Data set [2] concerns the target T5, hCA III. On the set-up: method as in PMID 23605884. Conditions: HPLC assay; cited from earlier work.
Setting [3] is: stopped-flow CO2 hydrase, mean from 3 assays, errors ± 5–10%, read-out: KI hCA VA.

T1 sequence (P35218 39-305): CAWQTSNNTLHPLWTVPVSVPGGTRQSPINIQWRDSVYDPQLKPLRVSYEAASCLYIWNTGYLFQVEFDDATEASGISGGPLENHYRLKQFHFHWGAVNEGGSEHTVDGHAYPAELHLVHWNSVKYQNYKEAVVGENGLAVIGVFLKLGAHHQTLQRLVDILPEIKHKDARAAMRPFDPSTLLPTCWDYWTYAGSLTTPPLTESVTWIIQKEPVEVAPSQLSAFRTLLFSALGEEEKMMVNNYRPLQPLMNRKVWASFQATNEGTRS
T8 sequence (P22748 19-312): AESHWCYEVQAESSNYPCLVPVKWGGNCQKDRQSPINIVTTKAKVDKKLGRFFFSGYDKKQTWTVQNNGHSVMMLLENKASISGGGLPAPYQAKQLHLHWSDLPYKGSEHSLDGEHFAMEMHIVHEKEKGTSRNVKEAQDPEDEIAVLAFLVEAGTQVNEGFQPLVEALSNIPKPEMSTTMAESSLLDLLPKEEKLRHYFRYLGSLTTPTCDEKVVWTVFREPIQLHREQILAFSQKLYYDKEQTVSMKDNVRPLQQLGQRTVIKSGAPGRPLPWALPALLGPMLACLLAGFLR
Description for hCA IV: as §1
Description for hCA VA: as §1
Description for hCA VB: as §1
Description for hCA VII: as §1
Description for hCA XII: as §1

As to `NS(=O)(=O)CCCCn1cc(COc2ccc(F)cc2)nn1` [Compound 41, 4–(4-((4-Fluorophenoxy)methyl)-1H-1,2,3-triazol-1-yl)butane-1-sulfonamide], the melting point fell in the range of 246 to 248 °C. Further, the Ki on hCA VA (setting [3]) was found to be 4.39 µM. Moreover, the affinity at hCA II corresponds to a Ki of 8.13 µM. On hCA VII, this compound yielded a Ki of 5.33 µM. At hCA XII, this compound displayed a Ki of 2.1 µM. For the same compound, on hCA III [1], the “Selectivity Index (SI) hCA I/hCA III” value was found to be 10.4; the “Selectivity Index (SI) hCA II/hCA III” value is 13.14 and 13.1; the affinity corresponds to a Ki of 0.618 µM. For the same compound, on hCA VB, the affinity, expressed as Ki, was 1.24 µM. The compound also came in with a Ki on hCA I of 6.43 µM. Besides, the Ki on hCA IV is 5.51 µM.

`COc1ccc(OCc2cn(CCCCS(N)(=O)=O)nn2)cc1` [Compound 42, 4–(4-((4-Methoxyphenoxy)methyl)-1H-1,2,3-triazol-1-yl)butane-1-sulfonamide] yielded a melting point of 251 to 253 °C. The Ki at hCA VA (setting [3]) was 6.04 µM. On hCA II, this compound displayed a Ki of 3.93 µM. At hCA VII, the affinity, expressed as Ki, was 5.3 µM. The compound also registered a Ki at hCA XII of 3.07 µM. Also, on hCA III [1], the “Selectivity Index (SI) hCA II/hCA III” value came to 5.8 and the Ki amounted to 0.676 µM. Besides, the inhibition constant Ki on hCA VB came to 6.67 µM. In addition, on hCA I, the Ki was 8.54 µM. The same compound came in with a Ki at hCA IV of 5.61 µM.

In turn, `COc1cccc(OCc2cn(CCCCS(N)(=O)=O)nn2)c1` [Compound 43, 4–(4-((3-Methoxyphenoxy)methyl)-1H-1,2,3-triazol-1-yl)butane-1-sulfonamide] yielded a melting point of 186 to 188 °C. Also, the inhibition constant (Ki) on hCA VA (setting [3]) was 2.17 µM. The Ki at hCA II was 5.97 µM. Besides, at hCA VII, the affinity corresponds to a Ki of 3.65 µM. Besides, at hCA XII, the Ki worked out at 2.72 µM. Also, on hCA III [1], the “Selectivity Index (SI) hCA I/hCA III” value was found to be 5.2; the “Selectivity Index (SI) hCA II/hCA III” value is 13.44 and 13.4; the affinity corresponds to a Ki of 0.444 µM. This compound also registered a Ki at hCA VB of 1.63 µM. In addition, affinity at hCA I was put at a Ki of 2.32 µM. The same compound showed a Ki on hCA IV of 8.27 µM.

In the case of `NS(=O)(=O)CCCCn1cc(CNC(=O)Nc2ccc(F)cc2)nn1` [Compound 44, 4–(4-((3–(4-Fluorophenyl)ureido)methyl)-1H-1,2,3-triazol-1-yl)butane-1-sulfonamide], the melting point lay in the range of 284 to 286 °C. Further, the affinity on hCA VA corresponds to a Ki of 1.35 µM. Besides, affinity on hCA II was put at a Ki of 7.58 µM. Further, the Ki on hCA VII stood at 3.35 µM. On hCA XII, the affinity, expressed as Ki, was 3.71 µM. Further, on hCA III [1], the “Selectivity Index (SI) hCA I/hCA III” value worked out at 9.0; the “Selectivity Index (SI) hCA II/hCA III” value was 12.66 and 12.7; the Ki was determined as 0.599 µM. The compound further displayed a Ki on hCA VB of 2.55 µM. The same compound returned a Ki at hCA I of 5.38 µM. Further, at hCA IV, the affinity corresponds to a Ki of 2.92 µM.

Compound `Cc1ccc(NC(=O)NCc2cn(CCCCS(N)(=O)=O)nn2)cc1` [Compound 45, 4–(4-((3-(p-Tolyl)ureido)methyl)-1H-1,2,3-triazol-1-yl)butane-1-sulfonamide] returned a melting point of 271 to 272 °C. Further, the Ki at hCA VA (setting [3]) is 3.34 µM. Besides, on hCA II, affinity was put at a Ki of 4.93 µM. Further, the Ki on hCA VII worked out at 5.64 µM. For the same compound, affinity at hCA XII was put at a Ki of 6.73 µM. At hCA III [1], the “Selectivity Index (SI) hCA I/hCA III” value is 5.7, the “Selectivity Index (SI) hCA II/hCA III” value is recorded as 5.3 and the Ki was 0.93 µM. On hCA VB, this compound came in with a Ki of 8.11 µM. Further, at hCA I, the affinity corresponds to a Ki of 5.3 µM. Moreover, affinity at hCA IV was put at a Ki of 5.74 µM.

As to `NS(=O)(=O)CCCCn1cc(CNC(=O)Nc2ccc(C(F)(F)F)cc2)nn1` [Compound 46, 4–(4-((3–(4-(Trifluoromethyl)phenyl)ureido)methyl)-1H-1,2,3-triazol-1-yl)butane-1-sulfonamide], the melting point is more than 300 °C. At hCA VA (setting [3]), the Ki turned out to be 1.8 µM. The Ki on hCA II is 0.879 µM. On hCA VII, this compound registered a Ki of 3.61 µM. The same compound gave a Ki at hCA XII of 2.63 µM. For the same compound, on hCA III [1], the “Selectivity Index (SI) hCA I/hCA III” value amounted to 9.7, the “Selectivity Index (SI) hCA II/hCA III” value turned out to be 1.6 and the Ki came out at 0.553 µM. The affinity at hCA VB, expressed as Ki, was 5.87 µM. For the same compound, the Ki on hCA I came to 5.39 µM. The inhibitory constant (Ki) on hCA IV was 3.59 µM.

`CCOC(=O)c1ccc(NC(=O)NCc2cn(CCCCS(N)(=O)=O)nn2)cc1` [Compound 47, Ethyl 4–(3-((1–(4-sulfamoylbutyl)-1H-1,2,3-triazol-4-yl)methyl)ureido)benzoate]: the melting point was in the range of 259 to 261 °C. Besides, the Ki at hCA VA (setting [3]) is 3.82 µM. The compound also came in with a Ki at hCA II of 0.566 µM. The affinity at hCA VII, expressed as Ki, was 1.95 µM. The same compound showed an inhibitory constant (Ki) at hCA XII of 2.83 µM. On hCA III [1], the “Selectivity Index (SI) hCA I/hCA III” value is reported as 13.2; the “Selectivity Index (SI) hCA II/hCA III” value was 1.15 and 1.1; the inhibitory constant (Ki) came to 0.493 µM. This compound also returned an inhibition constant (Ki) on hCA VB of 1.43 µM. This compound returned a Ki at hCA I of 6.52 µM. In addition, the affinity at hCA IV, expressed as Ki, was 2.6 µM.

In the case of `COc1cccc(NC(=O)NCc2cn(CCCCS(N)(=O)=O)nn2)c1` [Compound 48, 4–(4-((3–(3-Methoxyphenyl)ureido)methyl)-1H-1,2,3-triazol-1-yl)butane-1-sulfonamide], the melting point fell in the range of 217 to 218 °C. At hCA VA (setting [3]), the Ki is 4.16 µM. This compound came in with an inhibitory constant (Ki) on hCA II of 4.61 µM. In addition, the Ki on hCA VII was 3.9 µM. Further, the Ki at hCA XII came out at 4.66 µM. Besides, on hCA III [1], the “Selectivity Index (SI) hCA I/hCA III” value came to 11.6; the “Selectivity Index (SI) hCA II/hCA III” value is 9.7; the affinity, expressed as Ki, was 0.476 µM. At hCA VB, this compound registered a Ki of 1.14 µM. Moreover, the Ki on hCA I stood at 5.52 µM. The inhibitory constant (Ki) at hCA IV is more than 10 µM.

`COc1cc(C(=O)O)ccc1O` [vanillic acid]: the inhibition constant (Ki) on hCA III [2] is 87 µM.
